Reference: patent US5719145A, “Amidine derivatives and platelet aggregation inhibitor containing the same” (Mitsui Toatsu Chemicals, Inc., priority 1996, dated 1998)
pIC50: −log10 of the molar value. Where a name gives a salt, the structure may show the parent alone.

Experiments:
[1] = target: T1, human fibrinogen receptor GP IIb/IIIa (Homo sapiens, UniProt P05106+P08514); assay: Binding inhibition of biotinylated fibrinogen to GP IIb/IIIa; details: purified human GP IIb/IIIa, read-out: Inhibition of GPIIb/IIIa . Fibrinogen Binding, IC50
T1 construct: Concentrated and lyophilized human platelet (20 vial) (Organon Teknika Co.) was lysed; tissue Organon Teknika Co; host or cells: human platelets (lyophilized), lysed in Triton X-100
T1 sequence (P08514 32-887 limits assumed): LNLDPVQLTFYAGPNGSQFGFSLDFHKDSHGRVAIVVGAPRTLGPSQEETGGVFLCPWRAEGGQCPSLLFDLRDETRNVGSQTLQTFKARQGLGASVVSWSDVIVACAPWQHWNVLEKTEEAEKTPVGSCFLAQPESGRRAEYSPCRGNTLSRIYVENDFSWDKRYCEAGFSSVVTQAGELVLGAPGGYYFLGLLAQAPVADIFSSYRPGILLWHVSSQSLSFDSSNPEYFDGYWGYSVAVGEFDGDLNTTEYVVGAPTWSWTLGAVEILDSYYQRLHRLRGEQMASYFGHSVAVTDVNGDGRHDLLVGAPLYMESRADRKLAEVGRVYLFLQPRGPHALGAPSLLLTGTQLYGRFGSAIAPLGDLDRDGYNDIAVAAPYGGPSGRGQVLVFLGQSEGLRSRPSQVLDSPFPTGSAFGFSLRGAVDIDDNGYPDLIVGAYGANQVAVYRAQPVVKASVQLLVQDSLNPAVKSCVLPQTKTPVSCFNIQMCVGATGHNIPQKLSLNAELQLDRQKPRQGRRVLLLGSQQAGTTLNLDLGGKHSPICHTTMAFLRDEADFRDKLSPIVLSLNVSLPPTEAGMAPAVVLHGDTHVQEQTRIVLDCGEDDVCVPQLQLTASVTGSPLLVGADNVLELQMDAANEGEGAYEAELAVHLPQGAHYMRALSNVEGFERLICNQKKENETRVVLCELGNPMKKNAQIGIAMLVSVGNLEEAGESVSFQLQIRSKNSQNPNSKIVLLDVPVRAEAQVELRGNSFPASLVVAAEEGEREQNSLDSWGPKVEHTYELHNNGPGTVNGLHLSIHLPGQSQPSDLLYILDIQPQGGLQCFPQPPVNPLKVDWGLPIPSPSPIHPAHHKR
T1 sequence (P08514 891-1039 partner limits assumed): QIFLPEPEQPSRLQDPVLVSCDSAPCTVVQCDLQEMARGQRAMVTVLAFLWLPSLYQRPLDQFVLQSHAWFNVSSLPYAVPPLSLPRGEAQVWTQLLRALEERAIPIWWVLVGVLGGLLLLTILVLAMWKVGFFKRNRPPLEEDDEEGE
T1 sequence (P05106 27-788): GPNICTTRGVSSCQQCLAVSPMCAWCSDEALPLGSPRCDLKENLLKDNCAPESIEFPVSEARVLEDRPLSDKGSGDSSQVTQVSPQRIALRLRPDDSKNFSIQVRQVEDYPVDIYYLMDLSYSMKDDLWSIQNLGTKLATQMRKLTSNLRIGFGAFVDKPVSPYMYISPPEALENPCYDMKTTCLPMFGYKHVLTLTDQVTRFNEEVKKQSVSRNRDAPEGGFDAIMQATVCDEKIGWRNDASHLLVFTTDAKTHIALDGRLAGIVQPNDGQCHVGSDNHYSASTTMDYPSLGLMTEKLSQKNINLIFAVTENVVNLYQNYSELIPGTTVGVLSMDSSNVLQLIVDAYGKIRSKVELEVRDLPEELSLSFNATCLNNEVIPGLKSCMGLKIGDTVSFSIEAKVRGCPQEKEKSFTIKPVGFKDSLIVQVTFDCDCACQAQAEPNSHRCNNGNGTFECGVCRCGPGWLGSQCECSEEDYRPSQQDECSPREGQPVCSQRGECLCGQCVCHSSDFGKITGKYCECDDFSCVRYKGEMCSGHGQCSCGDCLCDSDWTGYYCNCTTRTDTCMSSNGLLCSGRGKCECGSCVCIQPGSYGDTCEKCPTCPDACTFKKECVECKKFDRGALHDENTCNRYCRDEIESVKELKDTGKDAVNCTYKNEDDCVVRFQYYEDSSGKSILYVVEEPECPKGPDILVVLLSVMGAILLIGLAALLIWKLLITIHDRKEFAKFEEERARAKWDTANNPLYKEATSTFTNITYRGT
Protocol: Experiment for binding inhibition between GP IIb/IIIa and fibrinogen
1. Purification of human fibrinogen receptor GP IIb/IIIa
Concentrated and lyophilized human platelet (20 vial) (Organon Teknika Co.) was lysed in an antienzymic solution (80 ml) (1% Triton X-100, 10 mM Tris-HCl, 150 mM NaCl, 1 mM CaCl2, 10 μM leupeptin, 1 mM phenylmethane sulfonyl fluoride, pH 7.4), allowed to incubate for an hour at 4° C., and centrifuged at 30,000×g for 15 minutes to recover the supernatant solution containing 150 mg of protein. The GP IIb/IIIa was purified according to the method of Phillips et al. [Methods in Enzymology Vol. 215, (J. J. Hawigar, Eds.), 244-263, Acedemic Press Inc., San Diego].
2. Preparation of biotinylated fibrinogen
Human fibrinogen Grade L (KABI Co.) was purified by using Shepharose CL-6B and Lysine-Sepharose. Thus purified human fibrinogen (2.3 mg/ml) was dialyzed for 3 hours with 0.1M aqueous sodium bicarbonate solution at room temperature and successively diluted to 1 mg/ml. To the solution (4.5 ml) obtained, NHC-LC-Biotin (2 mg) (Pierce Co.) was added and reacted for 1 hour at room temperature to biotinylate fibrinogen. The reaction mixture was dialyzed at 4° C. for 24 hours with TBS (20 mM Tris-HCl, 150 mM NaCl, 1 mM CaCl2, 1 mM MgCl2, pH 7.4) to obtain biotinylated fibrinogen.
3. Binding inhibition of biotinylated fibrinogen to GP IIb/IIIa
Specimen drugs were dissolved and diluted with TBS containing 1% BSA. To each solution, an equal volume of biotinylated fibrinogen (2 μg/ml) dissolved in TBS containing 1% BSA, was added. The inhibition percentage of specimen drugs were measured by the method of Mori et al. [Jpn. J. Thromb. Hemost., 2, 323-399 (1991) with small modification].
Purified GP IIb/IIIa was diluted to 1.5 μg/ml in TBS containing 0.0005% of Triton X-100. The GP IIb/IIIa solution was added to a 96 well microplate (E.I.A/R.I.A. Plate, Costar Co.) in a volume of 100 μl for each well, and incubated at 4° C. for 24 hours to immobilize GP IIb/IIIa. The microplate was washed twice with a washing solution (TBS containing 0.01% of Tween 20). Thereafter TBS containing 3.5% of BSA was added to each well in a volume of 200 μl and blocking was carried out for about an hour at room temperature. The microplate was further washed twice with the washing solution, and successively a mixture of the specimen drug and the biotinylated fibrinogen was added in a volume of 100 μl/well and incubated for 24 hours at room temperature. The microplate was thereafter washed five times, and peroxidase-labeled streptoavidin (a kit of Amersham Co.) which was previously diluted 3000 times with TBS was added in a volume of 100 μl/well and incubated for about 30 minutes at room temperature. After washing the microplate 5 times, a 0.05M phosphate-citrate buffer solution (pH5) containing o-phenylenediamine(0.4 mg/ml) (manufactured by Sigma Co.) and H2 O2 (0.012%) was added in a volume of 200 μl/well to develop color for 20-40 minutes. The reaction was stopped by addition of 0.3M sulfuric acid in a volume of 50 μl/well and absorbance at 490 nm was measured with Immunoreader NJ-200 (manufactured by Inter Med Co.). […]

[2] = test system: guinea pig platelets (platelet-rich plasma); assay: In vitro inhibition of platelet aggregation in guinea pig (ADP-induced, PRP); format: cell-based; details: Cavia porcellus, ADP final concentration 5 μM, read-out: Platelet aggregation inhibitory activity in guinea pig, IC50
Protocol: In vitro experiment of platelet aggregation inhibition
1. Inhibition of platelet aggregation in Guinea pig
Blood of male guinea pig was collected with an injection syringe which contains 3.8 % sodium citrate as an anticoagulant in a ratio of 1 volume to 9 volumes of the blood. Successively, the collected blood mixture was subjected to centrifugation at 120×g for 15 minutes at room temperature to obtain platelet-rich plasma (PRP). An aliquot of PRP was further subjected to centrifugation at 1,200×g for 15 minutes to obtain platelet-poor plasma (PPP). Numbers of the platelet in PRP were measured with an automatic platelet counter: Sysmex PL-100 (manufactured by Toa Iyodenshi Co.) and PRP was diluted with PPP so as to adjust a platelet concentration to be about 300,000 particles/ μl. Platelet aggregation was measured by the following procedure with a 6 channel aggregometer: HEMA TRACER 1 (manufactured by NKK Co.).
(§1) After incubation of 240 μl of PRP at 37° C. for 2 minutes, 30 μl of the solvent of specimen as a control or of the specimen in various concentrations was added to PRP. Further 2 minutes later, 30 μl of adenosine diphosphate (final concentration: 5μM) was added to induce platelet aggregation. An inhibition percentage was obtained by comparing the maximum aggregation of the specimen drug group with that of control. […]

[3] = test system: human platelets (platelet-rich plasma); assay: In vitro inhibition of platelet aggregation in human (ADP-induced, PRP); format: cell-based; details: ADP final concentration 5 μM, read-out: Platelet aggregation inhibitory activity in human, IC50
Protocol: 2. Inhibition of platelet aggregation in human
Blood was collected from healthy human volunteers with an injection syringe and mixed one volume of 3.8% of sodium citrate as an anticoagulant to 9 volumes of the blood. Successively, the obtained blood mixture was subjected to centrifugation at 120×g for 15 minutes at room temperature to obtain platelet-rich plasma (PRP). An aliquot of PRP was further subjected to centrifugation at 1,200×g for 20 minutes to obtain platelet-poor plasma (PPP). Numbers of the platelet were measured with an automatic platelet counter: Sysmex PL-100 (manufactured by Toa Iyodenshi Co.) and PRP was diluted with PPP so as to adjust a platelet concentration to be about 250,000 particles/μl. Platelet aggregation was measured by the following procedure with a 6 channel aggregometer: HEMA TRACER 1 (manufactured by NKK Co.)
as §1, with “or” for “or of”, “5 μM)” for “5μM)”

SMILES | pIC50 [1] | pIC50 [2] | pIC50 [3]
C#CCNC(=N)c1ccc(C(=O)Nc2ccc3c(c2)CC(CC(=O)O)CO3)cc1 (single isomer, unassigned; (-)) [Example 50, (-)-6-[[4-(N^2-propargylamidino)benzoyl]amino]chroman-3-acetic acid hydrochloride] | 9.66 | 6.70 | 7.36
N=C(c1ccc(C(=O)Nc2ccc3c(c2)CC(CC(=O)O)CO3)cc1)N1CCOCC1 (single isomer, unassigned; (-)) [Example 52, (-)-6-[[4-(morpholinoiminomethyl)benzoyl]amino]chroman-3-acetic acid hydrochloride] | 9.89 | 6.96 | 7.46
N=C(c1ccc(C(=O)Nc2ccc3c(c2)CC(CC(=O)O)CC3)cc1)N1CCOCC1 (stereo not drawn) [Example 2, 7-[[4-(morpholinoiminomethyl)benzoyl]amino]-1,2,3,4-tetrahydronaphthalene-2-acetic acid hydrochloride] | 9.89 | 6.85 | 7.17
N=C(c1ccc(C(=O)Nc2ccc3c(c2)CC(CC(=O)O)CC3)cc1)N1CCSCC1 (stereo not drawn) [Example 13, 7-[[4-(thiomorpholinoiminomethyl)benzoyl]amino]-1,2,3,4-tetrahydronaphthalene-2-acetic acid hydrochloride] | 9.55 | 6.77 | 7.22
C#CCN=C(N)c1ccc(C(=O)Nc2ccc3c(c2)CC(CC(=O)O)CC3)cc1 (stereo not drawn) [Example 25, 7-[[4-(N^2-propargylamidino)benzoyl]amino]-1,2,3,4-tetrahydronaphthalene-2-acetic acid hydrochloride] | 9.74 | 6.55 | 7.00
